Consider five compounds from paper PMC10223062, “Discovery of Novel Thiophene/Hydrazones: In Vitro and In Silico Studies against Pancreatic Cancer” (Pharmaceutics, 2023).

For one experiment, the system named is MIA PaCa-2 cell line. In words: 2D anticancer activity, MTT assay. It is filed as cell-based. The settings on record: Homo sapiens, 72 h exposure, read-out: IC50 in 2D cultured MIA PaCa-2 cell line. Here is the method:
For the preliminary assessment of anticancer activity in a 2D cell culture system, an MIA PaCa-2 human pancreas epithelial carcinoma (CRL-1420™) cell line (ATCC, Manassas, VA, USA) was cultured in Dulbecco’s Modified Eagle Medium with 10% fetal bovine serum (FBS, v/v) (Gibco, Billings, MT, USA) and supplemented with 1% antibiotics (10,000 μg/mL streptomycin and 10,000 U/mL penicillin) (Gibco, Billings, MT, USA) at 37 °C in a humidified 5% CO2 atmosphere. For the in vitro modeling of the tumor microenvironment, compounds were also tested in a 3D spheroid test system. For this purpose, the MIA PaCa-2 human pancreas epithelial carcinoma (CRL-1420™) cell line and human dermal fibroblast cell line HDF (PCS-201-012) cells were used.
For the assessment of anticancer activity of the compounds, the MIA PaCa-2 cells were plated in 48-well microplates at 1.5 × 10^5 cells/mL and incubated for 24 h at 37 °C in 5% CO2 in accordance with a previously reported method. Following the day, the cells were treated with compounds in various concentrations between 0.1–100 µM dissolved in dimethyl sulfoxide (DMSO) (Sigma Aldrich, St. Louis, MO, USA). Following the 72 h of incubation, culture mediums were discarded and 0.5 mg/mL 3-(4,5-Dimethylthiazol-2-yl)-2,5-Diphenyltetrazolium Bromide (MTT) (Sigma Aldrich, St. Louis, MO, USA) was added to each well for an additional 2 h at 37 °C. After 2 h incubation, the medium was discarded and 100 µL of isopropanol (Sigma Aldrich, St. Louis, MO, USA) was added to the wells to dissolve formazan crystals. The optical density was measured at 570 nm wavelength using a microplate reader (Thermo Fisher Scientific Multiskan, Finland). Doxorubicin hydrochloride (DOX) (European Pharmacopoeia standard, Sigma) was used as internal positive control, and 0.5% DMSO (v/v) was used as negative control. The percentage of cell viability was determined by using the following equation:(1) Viability %=(Absorbancecompound)/(Absorbancenegative control)×100%

A further experiment deals with T1, 5-LOX (Homo sapiens, UniProt P09917).
T1 construct: purchased MyBioSource
T1 sequence (P09917 1-674): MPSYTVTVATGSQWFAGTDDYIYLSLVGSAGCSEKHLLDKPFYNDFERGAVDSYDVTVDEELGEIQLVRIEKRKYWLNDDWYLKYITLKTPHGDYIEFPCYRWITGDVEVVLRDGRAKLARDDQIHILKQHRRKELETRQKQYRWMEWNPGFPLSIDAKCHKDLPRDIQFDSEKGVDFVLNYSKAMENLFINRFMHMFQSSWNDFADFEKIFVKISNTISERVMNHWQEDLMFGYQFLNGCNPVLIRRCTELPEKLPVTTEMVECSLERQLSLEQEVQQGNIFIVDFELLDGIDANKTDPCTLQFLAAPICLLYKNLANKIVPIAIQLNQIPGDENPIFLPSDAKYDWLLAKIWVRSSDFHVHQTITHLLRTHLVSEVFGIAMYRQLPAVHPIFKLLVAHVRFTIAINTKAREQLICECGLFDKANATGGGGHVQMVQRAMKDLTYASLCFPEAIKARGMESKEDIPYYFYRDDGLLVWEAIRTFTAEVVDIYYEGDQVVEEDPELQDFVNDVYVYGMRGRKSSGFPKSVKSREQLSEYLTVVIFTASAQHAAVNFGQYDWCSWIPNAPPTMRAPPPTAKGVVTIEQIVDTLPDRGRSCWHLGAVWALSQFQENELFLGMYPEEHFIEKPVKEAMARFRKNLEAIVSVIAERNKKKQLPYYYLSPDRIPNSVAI
In words: Fluorometric 5-LOX inhibitor screening kit. It is filed as biochemical. The settings on record: for 5-LOX Percent of İnhibition: at 10 µM. Here is the method: COX-1 and COX-2 inhibitory activities were tested using fluorometric COX-1 and COX-2 inhibitor screening kits (Abcam, United Kingdom), and the 5-LOX inhibitory activity was tested using a fluorometric 5-LOX inhibitor screening kit (MyBioSource, USA). These assays are based on the fluorometric detection of Prostaglandin G2 (a product generated by the COX enzyme) or on the fluorometric detection of the intermediate generated by the 5-LOX enzyme. The experiments were conducted in accordance with the manufacturers’ instructions.
For the determination of 5-LOX inhibitory activity, tested compounds were dissolved in DMSO (5 mM stock solution) and then diluted with the same solvent to obtain the test solutions. Test solutions were added to wells in an amount of 2 µL in the final 100 µL reaction volume. […] EC, SC, IC, and all test solutions were analyzed in triplicate.

Turning to `O=C(N/N=C/c1ccccc1O)c1cc(-c2ccccc2)c(-c2ccccc2)s1` [7a, N’-[(E)-(2-hydroxyphenyl)methylidene]-4,5-diphenylthiophene-2-carbohydrazide], the concentration for half-maximal inhibition (IC50) in the experiment with MIA PaCa-2 cell line was 7.51 ± 0.08 µM. Further, at 5-LOX, the half-maximal inhibitory concentration (IC50) was found to be 3.78 ± 0.39 µM and the “5-LOX Percent of İnhibition” value was 64.38 ± 0.46%.
As to `O=C(N/N=C/c1ccc(O)cc1)c1cc(-c2ccccc2)c(-c2ccccc2)s1` [7c, N’-[(E)-(4-hydroxyphenyl)methylidene]-4,5-diphenylthiophene-2-carbohydrazide], the half-maximal inhibitory concentration (IC50) in the experiment with MIA PaCa-2 cell line worked out at 42.8 ± 3.59 µM. Moreover, at 5-LOX, the IC50 stood at 2.6 ± 0.11 µM and the “5-LOX Percent of İnhibition” value turned out to be 55.05 ± 1.37%.
For `COc1ccccc1/C=N/NC(=O)c1cc(-c2ccccc2)c(-c2ccccc2)s1` [7d, N’-[(E)-(2-methoxyphenyl)methylidene]-4,5-diphenylthiophene-2-carbohydrazide], in the experiment with MIA PaCa-2 cell line, the half-maximal inhibitory concentration (IC50) was found to be 9.09 ± 1.04 µM. Also, the “5-LOX Percent of İnhibition” value at 5-LOX is reported as 15.61 ± 0.66%.
For `COc1cc(/C=N/NC(=O)c2cc(-c3ccccc3)c(-c3ccccc3)s2)ccc1O` [7e, N’-[(E)-(3-methoxy-4-hydroxyphenyl)methylidene]-4,5-diphenylthiophene-2-carbohydrazide], the concentration for half-maximal inhibition (IC50) in the experiment with MIA PaCa-2 cell line was more than 100 µM. Also, at 5-LOX, the midpoint of inhibition, the IC50, lay at 3.3 ± 0.07 µM and the “5-LOX Percent of İnhibition” value came out at 60.69 ± 0.54%.
`COc1ccc(/C=N/NC(=O)c2cc(-c3ccccc3)c(-c3ccccc3)s2)cc1O` [7f, N’-[(E)-(3-hydroxy-4-methoxyphenyl)methylidene]-4,5-diphenylthiophene-2-carbohydrazide]: the 50% inhibitory concentration (IC50) in the experiment with MIA PaCa-2 cell line is 4.86 ± 0.19 µM. Moreover, at 5-LOX, the midpoint of inhibition, the IC50, lay at 2.94 ± 0.2 µM and the “5-LOX Percent of İnhibition” value came out at 60.56 ± 2.49%.
